{"source": "ChEMBL document CHEMBL4184197", "about": "(Bioorg Med Chem, 2018)", "key": {"[1]": {"target": "Muscarinic acetylcholine receptor M4 (Homo sapiens) (UniProt P08173)", "assay": "Binding affinity to recombinant human muscarinic M4 receptor at 10 uM after 60 mins by scintillation counting analysis relative to control"}, "[2]": {"target": "5-hydroxytryptamine receptor 5A (Homo sapiens) (UniProt P47898)", "assay": "Binding affinity to recombinant human 5-HT5A receptor at 10 uM after 120 mins by scintillation counting analysis relative to control"}, "[3]": {"target": "5-hydroxytryptamine receptor 2A (Homo sapiens) (UniProt P28223)", "assay": "Binding affinity to recombinant human 5-HT2A receptor at 10 uM after 60 mins by scintillation counting analysis relative to control"}, "[4]": {"target": "5-hydroxytryptamine receptor 6 (Homo sapiens) (UniProt P50406)", "assay": "Binding affinity to recombinant human 5-HT6 receptor at 10 uM after 120 mins by scintillation counting analysis relative to control"}, "[5]": {"target": "Prostaglandin G/H synthase 2 (Homo sapiens) (UniProt P35354)", "assay": "Binding affinity to recombinant human COX2 at 10 uM after 5 mins by fluorescence assay relative to control"}, "[6]": {"target": "M-phase inducer phosphatase 1 (Homo sapiens) (UniProt P30304)", "assay": "Binding affinity to recombinant human phosphatase CDC25A at 10 uM after 20 mins by fluorescence assay relative to control"}, "[7]": {"target": "5-hydroxytryptamine receptor 2C (Homo sapiens) (UniProt P28335)", "assay": "Binding affinity to recombinant human 5-HT2C receptor at 10 uM after 60 mins by scintillation counting analysis relative to control"}, "[8]": {"target": "Adenosine receptor A1 (Homo sapiens) (UniProt P30542)", "sequence (P30542 whole entry)": "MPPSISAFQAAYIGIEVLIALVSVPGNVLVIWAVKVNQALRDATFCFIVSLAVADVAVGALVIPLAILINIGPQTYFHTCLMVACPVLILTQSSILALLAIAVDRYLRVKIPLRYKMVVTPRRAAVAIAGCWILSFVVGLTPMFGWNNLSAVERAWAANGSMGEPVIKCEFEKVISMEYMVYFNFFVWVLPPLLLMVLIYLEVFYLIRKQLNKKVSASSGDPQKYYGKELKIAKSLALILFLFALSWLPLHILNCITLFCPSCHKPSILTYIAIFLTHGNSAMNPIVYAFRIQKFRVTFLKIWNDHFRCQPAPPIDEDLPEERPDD", "assay": "Binding affinity to recombinant human A1 receptor at 10 uM after 60 mins by scintillation counting analysis relative to control"}, "Salmonella typhimurium": {"tested_on": "Salmonella typhimurium", "assay": "Mutagenicity in Salmonella typhimurium TA100 in presence of rat liver S9 fraction by Ames test", "type": "toxicity, organism-based", "conditions": "salmonella enterica subsp. enterica serovar typhimurium"}, "Homo sapiens [9]": {"organism": "Homo sapiens", "assay": "Binding affinity to recombinant human dopamine receptor D4.4 at 10 uM after 60 mins by scintillation counting analysis relative to control"}, "Homo sapiens [10]": {"organism": "Homo sapiens", "assay": "Binding affinity to delta-2-opioid receptor (unknown origin) at 10 uM relative to control"}, "[11]": {"target": "Disintegrin and metalloproteinase domain-containing protein 17 (Homo sapiens) (UniProt P78536)", "assay": "Binding affinity to recombinant human TACE at 10 uM after 5 mins by fluorescence assay relative to control"}, "[12]": {"target": "Kinesin-like protein KIF11 (Homo sapiens) (UniProt P52732)", "assay": "Binding affinity to recombinant human EG5 at 10 uM after 10 mins by spectrophotometric analysis relative to control"}, "[13]": {"target": "Pituitary adenylate cyclase-activating polypeptide type I receptor (Homo sapiens) (UniProt P41586)", "assay": "Binding affinity to recombinant human PACAP receptor at 10 uM after 120 mins by scintillation counting analysis relative to control"}, "[14]": {"target": "Prostacyclin receptor (Homo sapiens) (UniProt P43119)", "sequence (P43119 whole entry)": "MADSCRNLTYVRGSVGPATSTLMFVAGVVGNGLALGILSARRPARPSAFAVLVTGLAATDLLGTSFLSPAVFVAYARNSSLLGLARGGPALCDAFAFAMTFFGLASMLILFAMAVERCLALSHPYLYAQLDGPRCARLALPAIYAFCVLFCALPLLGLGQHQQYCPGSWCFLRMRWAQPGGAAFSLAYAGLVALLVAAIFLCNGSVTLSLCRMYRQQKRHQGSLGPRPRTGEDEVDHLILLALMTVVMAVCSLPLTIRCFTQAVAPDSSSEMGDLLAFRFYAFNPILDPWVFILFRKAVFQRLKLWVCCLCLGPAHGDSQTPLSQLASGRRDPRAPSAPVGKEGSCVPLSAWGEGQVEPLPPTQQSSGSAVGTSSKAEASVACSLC", "assay": "Binding affinity to recombinant human IP receptor at 10 uM after 60 mins by scintillation counting analysis relative to control"}, "[15]": {"target": "Histamine H2 receptor (Homo sapiens) (UniProt P25021)", "assay": "Binding affinity to recombinant human histamine H2 receptor at 10 uM after 120 mins by scintillation counting analysis relative to control"}, "[16]": {"target": "NAD-dependent protein deacetylase sirtuin-2 (Homo sapiens) (UniProt Q8IXJ6)", "sequence (Q8IXJ6 whole entry)": "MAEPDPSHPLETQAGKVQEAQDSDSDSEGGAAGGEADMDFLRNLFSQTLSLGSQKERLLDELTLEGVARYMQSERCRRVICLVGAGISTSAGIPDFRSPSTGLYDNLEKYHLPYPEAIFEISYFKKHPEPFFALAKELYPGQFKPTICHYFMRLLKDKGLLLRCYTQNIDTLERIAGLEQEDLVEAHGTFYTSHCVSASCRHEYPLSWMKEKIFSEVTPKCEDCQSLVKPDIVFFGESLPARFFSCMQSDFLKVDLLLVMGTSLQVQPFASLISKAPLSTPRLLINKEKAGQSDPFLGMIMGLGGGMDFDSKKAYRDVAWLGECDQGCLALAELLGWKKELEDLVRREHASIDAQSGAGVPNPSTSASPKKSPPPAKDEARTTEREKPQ", "assay": "Binding affinity to surtuin-2 (unknown origin) at 10 uM by relative to control"}, "[17]": {"target": "cGMP-specific 3',5'-cyclic phosphodiesterase (Homo sapiens) (UniProt O76074)", "assay": "Binding affinity to human PDE5 at 10 uM after 60 mins by scintillation counting analysis relative to control"}, "[18]": {"target": "Angiotensin-converting enzyme (Homo sapiens) (UniProt P12821)", "assay": "Binding affinity to ACE (unknown origin) at 10 uM relative to control"}, "[19]": {"target": "Neurotensin receptor type 1 (Homo sapiens) (UniProt P30989)", "assay": "Binding affinity to recombinant human NT1 receptor at 10 uM after 60 mins by scintillation counting analysis relative to control"}, "[20]": {"target": "Centromere-associated protein E (Homo sapiens) (UniProt Q02224)", "sequence (Q02224 whole entry)": "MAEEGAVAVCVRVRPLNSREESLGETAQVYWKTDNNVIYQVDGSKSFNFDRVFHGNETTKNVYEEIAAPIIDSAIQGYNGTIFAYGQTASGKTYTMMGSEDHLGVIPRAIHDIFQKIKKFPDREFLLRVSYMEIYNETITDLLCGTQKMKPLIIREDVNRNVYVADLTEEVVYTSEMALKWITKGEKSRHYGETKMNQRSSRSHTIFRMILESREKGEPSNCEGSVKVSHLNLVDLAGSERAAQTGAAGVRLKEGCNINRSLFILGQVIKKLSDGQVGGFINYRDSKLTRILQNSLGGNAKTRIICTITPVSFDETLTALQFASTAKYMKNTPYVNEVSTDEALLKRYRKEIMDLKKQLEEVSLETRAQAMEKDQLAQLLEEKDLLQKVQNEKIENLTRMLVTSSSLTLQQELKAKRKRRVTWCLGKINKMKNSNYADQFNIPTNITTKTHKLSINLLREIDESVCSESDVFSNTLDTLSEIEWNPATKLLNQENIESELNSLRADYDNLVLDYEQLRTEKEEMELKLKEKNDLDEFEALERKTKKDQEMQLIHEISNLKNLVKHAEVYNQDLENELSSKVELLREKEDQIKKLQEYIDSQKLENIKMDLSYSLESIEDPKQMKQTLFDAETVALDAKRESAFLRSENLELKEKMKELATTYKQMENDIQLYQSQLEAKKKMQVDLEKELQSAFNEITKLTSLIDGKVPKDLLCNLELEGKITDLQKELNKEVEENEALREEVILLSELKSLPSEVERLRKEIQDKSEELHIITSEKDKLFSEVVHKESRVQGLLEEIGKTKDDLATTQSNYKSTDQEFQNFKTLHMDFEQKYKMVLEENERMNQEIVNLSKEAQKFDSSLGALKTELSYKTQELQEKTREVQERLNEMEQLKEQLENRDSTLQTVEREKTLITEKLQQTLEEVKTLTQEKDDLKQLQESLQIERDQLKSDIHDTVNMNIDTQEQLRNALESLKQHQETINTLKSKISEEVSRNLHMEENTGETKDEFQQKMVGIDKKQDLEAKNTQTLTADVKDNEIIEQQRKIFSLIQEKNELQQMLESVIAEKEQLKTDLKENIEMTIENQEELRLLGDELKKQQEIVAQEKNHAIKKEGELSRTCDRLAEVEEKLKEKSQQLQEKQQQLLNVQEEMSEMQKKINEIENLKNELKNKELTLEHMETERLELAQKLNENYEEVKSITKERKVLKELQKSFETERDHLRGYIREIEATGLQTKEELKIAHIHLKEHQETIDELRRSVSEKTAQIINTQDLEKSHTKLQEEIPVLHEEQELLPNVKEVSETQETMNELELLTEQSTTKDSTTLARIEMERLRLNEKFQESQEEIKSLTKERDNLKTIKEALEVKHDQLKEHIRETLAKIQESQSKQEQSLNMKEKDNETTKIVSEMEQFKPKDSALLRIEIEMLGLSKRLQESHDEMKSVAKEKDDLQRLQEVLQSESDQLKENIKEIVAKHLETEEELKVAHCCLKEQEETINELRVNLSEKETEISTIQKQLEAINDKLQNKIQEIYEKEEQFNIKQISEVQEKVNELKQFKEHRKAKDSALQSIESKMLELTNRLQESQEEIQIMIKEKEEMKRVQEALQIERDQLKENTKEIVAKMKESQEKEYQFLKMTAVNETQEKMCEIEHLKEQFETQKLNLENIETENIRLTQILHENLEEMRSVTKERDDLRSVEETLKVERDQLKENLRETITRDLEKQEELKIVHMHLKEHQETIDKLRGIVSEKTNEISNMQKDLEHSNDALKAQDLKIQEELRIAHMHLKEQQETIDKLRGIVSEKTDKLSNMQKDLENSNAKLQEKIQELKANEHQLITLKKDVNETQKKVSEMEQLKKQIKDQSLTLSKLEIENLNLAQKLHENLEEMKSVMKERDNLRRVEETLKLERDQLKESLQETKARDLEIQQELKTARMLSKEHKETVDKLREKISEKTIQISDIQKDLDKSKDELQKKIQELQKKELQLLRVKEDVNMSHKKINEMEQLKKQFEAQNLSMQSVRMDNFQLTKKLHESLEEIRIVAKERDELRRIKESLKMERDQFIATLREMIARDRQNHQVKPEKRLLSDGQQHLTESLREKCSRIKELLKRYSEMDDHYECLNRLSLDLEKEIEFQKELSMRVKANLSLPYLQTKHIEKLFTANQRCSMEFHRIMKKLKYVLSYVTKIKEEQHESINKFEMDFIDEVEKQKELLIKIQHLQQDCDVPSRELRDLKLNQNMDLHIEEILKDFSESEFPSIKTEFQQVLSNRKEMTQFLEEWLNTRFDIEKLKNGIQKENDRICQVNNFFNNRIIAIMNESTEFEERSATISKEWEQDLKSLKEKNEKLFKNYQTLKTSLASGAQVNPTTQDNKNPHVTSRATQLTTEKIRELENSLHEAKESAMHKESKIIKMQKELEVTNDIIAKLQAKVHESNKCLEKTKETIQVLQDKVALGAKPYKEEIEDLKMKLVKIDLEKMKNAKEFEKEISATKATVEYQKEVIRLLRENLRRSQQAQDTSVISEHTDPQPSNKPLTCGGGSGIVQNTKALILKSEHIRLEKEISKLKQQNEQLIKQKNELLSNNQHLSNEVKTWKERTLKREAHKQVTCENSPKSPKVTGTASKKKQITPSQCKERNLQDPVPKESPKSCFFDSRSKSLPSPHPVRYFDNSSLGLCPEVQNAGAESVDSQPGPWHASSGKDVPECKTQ", "assay": "Binding affinity to recombinant human CENPE at 10 uM after 30 mins by spectrophotometric analysis relative to control"}, "[21]": {"target": "Type-1 angiotensin II receptor (Homo sapiens) (UniProt P30556)", "sequence (P30556 whole entry)": "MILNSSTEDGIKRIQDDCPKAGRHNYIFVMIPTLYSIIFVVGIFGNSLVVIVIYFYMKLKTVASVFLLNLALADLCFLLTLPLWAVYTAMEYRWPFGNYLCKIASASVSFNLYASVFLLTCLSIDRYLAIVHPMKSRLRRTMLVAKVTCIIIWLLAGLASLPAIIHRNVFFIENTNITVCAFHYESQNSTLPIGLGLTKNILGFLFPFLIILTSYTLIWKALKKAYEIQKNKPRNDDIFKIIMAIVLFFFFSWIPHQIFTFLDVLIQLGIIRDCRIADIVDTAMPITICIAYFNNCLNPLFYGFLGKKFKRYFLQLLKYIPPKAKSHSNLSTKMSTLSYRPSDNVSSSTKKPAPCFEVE", "assay": "Binding affinity to recombinant human AT1 receptor at 10 uM after 120 mins by scintillation counting analysis relative to control"}, "[22]": {"target": "Adenosine receptor A2a (Homo sapiens) (UniProt P29274)", "assay": "Binding affinity to recombinant human A2A receptor at 10 uM after 120 mins by scintillation counting analysis relative to control"}, "[23]": {"target": "C-X-C chemokine receptor type 2 (Homo sapiens) (UniProt P25025)", "assay": "Binding affinity to recombinant human CXCR2 receptor at 10 uM after 60 mins by scintillation counting analysis relative to control"}, "[24]": {"target": "Beta-1 adrenergic receptor (Homo sapiens) (UniProt P08588)", "assay": "Binding affinity to recombinant human beta1 receptor at 10 uM after 60 mins by scintillation counting analysis relative to control"}, "[25]": {"target": "cGMP-inhibited 3',5'-cyclic phosphodiesterase 3A (Homo sapiens) (UniProt Q14432)", "assay": "Binding affinity to recombinant human PDE3A at 10 uM after 20 mins by scintillation counting analysis relative to control"}, "[26]": {"target": "Adenosine receptor A3 (Homo sapiens) (UniProt P0DMS8)", "assay": "Binding affinity to recombinant human A3 receptor at 10 uM after 120 mins by scintillation counting analysis relative to control"}, "[27]": {"target": "Endothelin-1 receptor (Homo sapiens) (UniProt P25101)", "sequence (P25101 whole entry)": "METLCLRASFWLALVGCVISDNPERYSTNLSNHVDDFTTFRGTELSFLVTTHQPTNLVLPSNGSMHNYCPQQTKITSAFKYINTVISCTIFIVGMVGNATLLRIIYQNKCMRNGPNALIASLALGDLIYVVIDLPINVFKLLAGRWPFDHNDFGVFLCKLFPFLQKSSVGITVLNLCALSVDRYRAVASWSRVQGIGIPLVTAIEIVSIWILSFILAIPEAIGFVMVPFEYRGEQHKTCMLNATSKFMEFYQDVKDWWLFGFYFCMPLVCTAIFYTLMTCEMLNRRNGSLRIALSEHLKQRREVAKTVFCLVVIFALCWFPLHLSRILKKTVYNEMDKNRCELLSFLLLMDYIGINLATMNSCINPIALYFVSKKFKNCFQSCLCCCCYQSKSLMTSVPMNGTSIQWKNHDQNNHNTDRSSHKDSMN", "assay": "Binding affinity to recombinant human ETA receptor at 10 uM after 120 mins by scintillation counting analysis relative to control"}, "Bos taurus": {"organism": "Bos taurus", "assay": "Binding affinity to bovine PDE6 at 10 uM after 60 mins by scintillation counting analysis relative to control"}, "[28]": {"target": "Interstitial collagenase (Homo sapiens) (UniProt P03956)", "assay": "Binding affinity to human MMP1 at 10 uM after 20 mins by fluorescence assay relative to control"}, "[29]": {"target": "Peroxisome proliferator-activated receptor gamma (Homo sapiens) (UniProt P37231)", "assay": "Binding affinity to recombinant human PPARgamma receptor at 10 uM after 120 mins by scintillation counting analysis relative to control"}, "[30]": {"target": "Histone deacetylase 3 (Homo sapiens) (UniProt O15379)", "sequence (O15379 whole entry)": "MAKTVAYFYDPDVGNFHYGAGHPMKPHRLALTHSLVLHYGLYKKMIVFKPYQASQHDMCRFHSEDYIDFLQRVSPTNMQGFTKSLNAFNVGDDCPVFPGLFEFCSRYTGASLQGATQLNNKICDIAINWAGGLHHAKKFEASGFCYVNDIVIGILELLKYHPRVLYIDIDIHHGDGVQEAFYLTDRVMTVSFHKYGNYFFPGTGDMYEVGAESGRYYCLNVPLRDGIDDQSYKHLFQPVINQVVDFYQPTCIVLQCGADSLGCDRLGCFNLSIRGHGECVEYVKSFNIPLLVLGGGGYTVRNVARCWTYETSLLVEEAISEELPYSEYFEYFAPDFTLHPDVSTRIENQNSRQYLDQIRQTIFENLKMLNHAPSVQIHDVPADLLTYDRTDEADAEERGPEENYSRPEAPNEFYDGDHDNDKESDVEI", "assay": "Binding affinity to recombinant human HDAC3 at 10 uM after 10 mins by fluorescence analysis relative to control"}, "Tryptase (Homo sapiens)": {"target": "Tryptase (Homo sapiens) (UniProt Q9BZJ3+Q15661+Q9NRR2)", "assay": "Binding affinity to human tryptase at 10 uM after 8 mins by spectrophotometric analysis relative to control", "type": "protein assay"}, "COS-7": {"tested_on": "COS-7", "assay": "Cytotoxicity against African green monkey COS7 cells assessed as cell death after 2 days by MTT assay", "type": "cell-based", "conditions": "chlorocebus aethiops, cos-7, 48 h"}, "[31]": {"target": "Prostaglandin E2 receptor EP4 subtype (Homo sapiens) (UniProt P35408)", "assay": "Binding affinity to recombinant human EP4 receptor at 10 uM after 120 mins by scintillation counting analysis relative to control"}, "Homo sapiens [32]": {"organism": "Homo sapiens", "assay": "Binding affinity to human sigma receptor at 10 uM after 120 mins by scintillation counting analysis relative to control"}}}
{"molecule": "CCOc1c(Cl)cc(C(=O)Nc2ccc(C(=O)O)c(C)c2)cc1OC(C)C", "values": [{"measurement": "Activity", "setting": "[1]", "result": "< 25", "unit": "%"}, {"measurement": "Activity", "setting": "[2]", "result": "< 25", "unit": "%"}, {"measurement": "Activity", "setting": "[3]", "result": "< 25", "unit": "%"}, {"measurement": "Activity", "setting": "[4]", "result": "< 25", "unit": "%"}, {"measurement": "Activity", "setting": "[5]", "result": "< 25", "unit": "%"}, {"measurement": "Activity", "setting": "[6]", "result": "< 25", "unit": "%"}, {"measurement": "Activity", "setting": "[7]", "result": "< 25", "unit": "%"}, {"measurement": "Activity", "setting": "[8]", "result": "< 25", "unit": "%"}, {"measurement": "Activity", "setting": "Salmonella typhimurium", "result": "Non-Toxic"}, {"measurement": "Activity", "setting": "Homo sapiens [9]", "result": "< 25", "unit": "%"}, {"measurement": "Activity", "setting": "Homo sapiens [10]", "result": "< 25", "unit": "%"}, {"measurement": "Activity", "setting": "[11]", "result": "< 25", "unit": "%"}, {"measurement": "Activity", "setting": "[12]", "result": "< 25", "unit": "%"}, {"measurement": "Activity", "setting": "[13]", "result": "< 25", "unit": "%"}, {"measurement": "Activity", "setting": "[14]", "result": "< 25", "unit": "%"}, {"measurement": "Activity", "setting": "[15]", "result": "< 25", "unit": "%"}, {"measurement": "Activity", "setting": "[16]", "result": "< 25", "unit": "%"}, {"measurement": "Activity", "setting": "[17]", "result": "< 25", "unit": "%"}, {"measurement": "Activity", "setting": "[18]", "result": "< 25", "unit": "%"}, {"measurement": "Activity", "setting": "[19]", "result": "< 25", "unit": "%"}, {"measurement": "Activity", "setting": "[20]", "result": "< 25", "unit": "%"}, {"measurement": "Activity", "setting": "[21]", "result": "< 25", "unit": "%"}, {"measurement": "Activity", "setting": "[22]", "result": "< 25", "unit": "%"}, {"measurement": "Activity", "setting": "[23]", "result": "< 25", "unit": "%"}, {"measurement": "Activity", "setting": "[24]", "result": "< 25", "unit": "%"}, {"measurement": "Activity", "setting": "[25]", "result": "< 25", "unit": "%"}, {"measurement": "Activity", "setting": "[26]", "result": "< 25", "unit": "%"}, {"measurement": "Activity", "setting": "[27]", "result": "< 25", "unit": "%"}, {"measurement": "Activity", "setting": "Bos taurus", "result": "< 25", "unit": "%"}, {"measurement": "Activity", "setting": "[28]", "result": "< 25", "unit": "%"}, {"measurement": "Activity", "setting": "[29]", "result": "< 25", "unit": "%"}, {"measurement": "Activity", "setting": "[30]", "result": "< 25", "unit": "%"}, {"measurement": "Activity", "setting": "Tryptase (Homo sapiens)", "result": "< 25", "unit": "%"}, {"measurement": "Activity", "setting": "COS-7", "result": "Non-Toxic"}, {"measurement": "Activity", "setting": "[31]", "result": "< 25", "unit": "%"}, {"measurement": "Activity", "setting": "Homo sapiens [32]", "result": "< 25", "unit": "%"}]}
